In patent US12122833B2, “Combination therapies of HDAC inhibitors and PD-1 inhibitors” (HUYABIO International, LLC, priority 2016, dated 2024):

Experiments:
[1] = test system: MC38 murine colon carcinoma; assay: Example 3: second-line therapy after PD-L1 inhibitor antibody failure, MC38 syngeneic model in C57BL/6 mice; format: in vivo, mouse
Description: In this model, a proportion of the animals treated 1st line with the PD-L1 checkpoint inhibitor antibody experience complete tumor regression. However, a similar proportion of animals treated 1st line with the PD-L1 inhibitor antibody experience rapid tumor progression. The balance of the animals treated in this way experience slow tumor progression or stable disease, which is a result which approximates the situation in a number of human cancer patients receiving PD-L1 inhibitor antibody therapy, i.e., they experience a transient partial response, including stable disease, but then develop resistance and rapidly progress, failing PD-1 inhibitor antibody therapy. In this example, the efficacy of HBI-8000 as a second-line therapy, alone and in combination with PD-1 inhibitor antibody RMPI-14, was evaluated for the ability to cause tumor growth delay (TGD) in animals which tumors which are progressing following PD-L1 inhibitor antibody first line therapy in the MC38 murine colon carcinoma syngeneic model in immunocompetent C57BL/6 mice.
Female C57BL/6 mice bearing subcutaneous MC38 tumors (mean tumor volume: 114 mm^3 when treatment began) were treated with a first line of therapy of PD-L1 inhibitor antibody treatment, administered intraperitoneally (i.p.) at 5 mg/kg, twice weekly for two weeks (biwk×2). […] Dosing began on D1, which represents the day of recruitment and varied among mice (this was normalized for each group). The second-line therapies were as follows. Vehicle was administered orally (p.o.). HBI-8000 was administered p.o. at 50 mg/kg. PD-1 inhibitor antibody and anti-PDL-1 were administered intraperitoneally (i.p) at 5 mg/kg. Group 1 mice served as controls and received 0.2% carboxymethyl cellulose: 0.1% Tween 80 in deionized water (vehicle) once daily for twenty-one days (qd×21). Group 2 received HBI-8000 qd×21. Group 3 received a second course of PD-L1 inhibitor antibody biwk×2. Group 4 received HBI-8000 qd×21 and PD-L1 inhibitor antibody biwk×2. Group 5 received anti-PD-1 biwk×2. Group 6 received HBI-8000 qd×21 and anti-PD-1 biwk×2. The study endpoint was tumor volume of 1500 mm^3 or 45 days, whichever came first. Tumor measurements were taken twice weekly until D44 with individual animals exiting the study upon reaching the tumor volume endpoint.
Tumor Implantation and Measurement: Details of tumor implantation and measurement of tumor growth used in this example can be found in Example 1. In this example, each mouse was inoculated subcutaneously in the right flank with 5×10^5 cells (0.1 mL of cell suspension).
Test Articles: HUYA Bioscience International provided HBI-8000 (Lot No. 1384:0033). PD-1 inhibitor antibody RMPI-14 (Lot No. 5611-10/0615) and PDL-1 antibody 10F.9G2 (anti-PDL-1, Lot No. 5786-7-8/0815) were purchased from Bio X cell (West Lebanon, N.H.). All agents were prepared according to protocol instructions.
Dosing Solutions: HBI-8000 was prepared by diluting in 0.2% CMC: 0.1% Tween 80 to yield a 5 mg/mL dosing solution. Dosing solutions were prepared fresh weekly and stored at 4° C. PD-1 inhibitor antibody dosing solution was prepared by diluting an aliquot of the stock (8.62 mg/mL) to 0.5 mg/mL in sterile PBS. The dosing solution was prepared twice weekly and stored at 4° C. Anti-PDL-1 antibody dosing solution was prepared by diluting an aliquot of the stock (5.37 mg/mL) to 0.5 mg/mL in sterile PBS. The anti-PDL-1 antibody dosing solution was prepared twice weekly and stored at 4° C.
Treatment: For the initial PD-L1 inhibitor antibody failure part of this study, 150 C57BL/6 mice were dosed i.p. with first line PD-L1 inhibitor antibody at 5 mg/kg, biwk×2. Animals that met the criteria for reenrollment comprised the efficacy study; this included animals with two consecutive increases in tumor volume and tumor volumes below 500 mm^3. […]

[2] = molecular target: T1, HDAC 11 (Homo sapiens, UniProt Q96DB2); conditions: cited from earlier work
T1 sequence (Q96DB2 1-347): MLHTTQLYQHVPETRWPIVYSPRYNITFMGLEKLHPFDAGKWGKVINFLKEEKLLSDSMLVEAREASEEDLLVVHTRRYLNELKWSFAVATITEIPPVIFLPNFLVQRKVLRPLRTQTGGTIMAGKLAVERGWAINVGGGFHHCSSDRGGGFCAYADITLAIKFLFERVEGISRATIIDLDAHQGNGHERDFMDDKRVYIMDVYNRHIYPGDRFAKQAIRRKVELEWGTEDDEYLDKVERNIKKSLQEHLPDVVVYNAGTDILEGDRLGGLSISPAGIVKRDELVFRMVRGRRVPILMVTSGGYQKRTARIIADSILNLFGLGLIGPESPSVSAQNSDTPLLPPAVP

[3] = molecular target: T2, HDAC 8 (Homo sapiens, UniProt Q9BY41); conditions: cited from earlier work
T2 sequence (Q9BY41 1-377): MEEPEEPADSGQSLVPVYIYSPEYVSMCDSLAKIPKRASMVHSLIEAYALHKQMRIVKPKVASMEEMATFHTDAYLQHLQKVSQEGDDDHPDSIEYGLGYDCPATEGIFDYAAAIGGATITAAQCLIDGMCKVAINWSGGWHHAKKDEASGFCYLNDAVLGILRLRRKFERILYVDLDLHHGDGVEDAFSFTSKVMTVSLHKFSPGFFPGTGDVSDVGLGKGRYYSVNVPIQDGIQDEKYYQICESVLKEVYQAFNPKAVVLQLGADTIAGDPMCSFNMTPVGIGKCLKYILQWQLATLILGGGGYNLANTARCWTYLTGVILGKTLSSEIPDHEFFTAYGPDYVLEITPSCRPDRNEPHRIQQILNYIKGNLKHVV

[4] = molecular target: HDAC 1 (Homo sapiens, UniProt Q13547); conditions: reported by Ning et al.; cited from earlier work
Chain of HDAC 1 (Q13547 whole entry): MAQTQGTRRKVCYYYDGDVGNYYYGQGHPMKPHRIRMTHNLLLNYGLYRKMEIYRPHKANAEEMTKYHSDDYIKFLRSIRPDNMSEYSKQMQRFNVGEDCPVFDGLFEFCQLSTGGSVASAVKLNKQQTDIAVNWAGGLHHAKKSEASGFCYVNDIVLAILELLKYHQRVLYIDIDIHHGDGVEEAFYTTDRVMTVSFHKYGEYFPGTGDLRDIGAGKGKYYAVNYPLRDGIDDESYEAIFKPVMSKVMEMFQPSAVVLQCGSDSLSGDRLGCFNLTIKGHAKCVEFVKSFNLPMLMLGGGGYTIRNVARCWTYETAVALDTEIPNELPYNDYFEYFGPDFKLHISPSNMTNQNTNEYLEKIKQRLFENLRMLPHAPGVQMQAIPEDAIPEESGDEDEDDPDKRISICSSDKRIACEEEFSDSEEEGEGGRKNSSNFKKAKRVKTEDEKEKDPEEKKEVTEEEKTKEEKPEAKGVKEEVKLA

[5] = HBI-8000 50 mg/kg p.o. qd×21, antibodies 5 mg/kg i.p., vs vehicle

With Nc1cc(F)ccc1NC(=O)c1ccc(CNC(=O)/C=C/c2cccnc2)cc1 [HBI-8000, N-(2-amino-4-fluorophenyl)-4-[[[(2E)-1-oxo-3-(3-pyridinyl)-2-propen-1-yl]amino]methyl]benz amide] the “Median TTE” value ([1]; HBI-8000 50 mg/kg p.o. qd×21, antibodies 5 mg/kg i.p., endpoint 1500 mm^3 or 45 days, n=10) was 11.4 days, the “% TGD” value [1, 5] was 31.8% and the “Mean T-C” value [1, 5] was 3.0 days. The “CR (complete response), number of animals” value ([1]; n=10 per group) was 1, the “NR (no response), number of animals” value ([1]; n=10 per group) was 8 and the “PR (partial response), number of animals” value ([1]; n=10 per group) was 1. The “activity at HDAC 11” value [2] was “has activity”, the “activity at HDAC 11 compared with Entinostat” value ([2]; reported by Ning et al.) was “more active than Entinostat” and the “activity at HDAC 8” value [3] was “has activity”. For the same compound, the “activity at HDAC 8 compared with Entinostat” value ([3]; reported by Ning et al.) was “more active than Entinostat”, the “activity at HDAC 1 compared with Entinostat” value [4] was “more active than Entinostat” and the “inhibition of HDAC 1” value [4] was “low nanomolar concentrations”.
